This is an account of results in ChEMBL document CHEMBL4622960, “Design, synthesis and biological activity of novel substituted 3-benzoic acid derivatives as MtDHFR inhibitors” (Bioorg Med Chem, 2020).

Molecules are shown by their SMILES. Calls of active or inactive are those of the source. The rule behind the calls is not given here.

Assay [1] deals with T1, Dihydrofolate reductase (Mycobacterium tuberculosis, UniProt P9WNX1).
T1 sequence (P9WNX1 whole entry): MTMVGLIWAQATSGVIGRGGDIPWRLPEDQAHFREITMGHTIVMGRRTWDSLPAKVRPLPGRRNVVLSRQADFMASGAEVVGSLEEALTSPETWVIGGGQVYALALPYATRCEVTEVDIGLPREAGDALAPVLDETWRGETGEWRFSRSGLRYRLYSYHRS
Nature of the assay: Inhibition of recombinant Mycobacterium tuberculosis DHFR expressed in Escherichia coli BL21(DE3) cells using DHF as substrate and NADPH as cofactor by fluorimetric analysis.

For assay [2], the target named is T2, Dihydrofolate reductase (Mycobacterium tuberculosis) (UniProt P9WNX1).
T2 sequence (whole entry): T1 sequence (P9WNX1 whole entry)
Nature of the assay: Potency index, ratio of MB872 IC50 to test compound IC50 for recombinant Mycobacterium tuberculosis DHFR expressed in Escherichia coli BL21(DE3) cells using DHF as substrate and NADPH as cofactor by fluorimetric analysis.

Assay [3] addresses T2, Dihydrofolate reductase (Mycobacterium tuberculosis). Nature of the assay: Uncompetitive inhibition of Mycobacterium tuberculosis DHFR assessed as constant Km using DHF as substrate and NADPH as cofactor by Michaelis-Menten analysis.
For assay [4] the target is unchanged. Nature of the assay: Uncompetitive inhibition of Mycobacterium tuberculosis DHFR assessed as varying Vmax using DHF as substrate and NADPH as cofactor by Michaelis-Menten analysis.
The target is the same in assay [5]. Nature of the assay: Potency index, ratio of trimethoprim IC50 to test compound IC50 for recombinant Mycobacterium tuberculosis DHFR expressed in Escherichia coli BL21(DE3) cells using DHF as substrate and NADPH as cofactor by fluorimetric analysis.

For orientation: IC50 means the concentration that gives 50% inhibition. For `O=C(O)c1cccc(COc2ccccc2)c1`, the IC50 in assay [1] is no less than 500 µM. Consider `O=C(O)c1ccc(COc2ccccc2)cc1`, for which, in assay [1], the IC50 was 442 µM. `COC(=O)c1cccc(COc2ccc([N+](=O)[O-])cc2)c1`: the IC50 in assay [1] was 35 µM. Further, the Ratio IC50 in assay [2] was in the range of 13 to 21. Take `COc1ccc(OCc2ccc(C(=O)O)cc2)cc1`: the IC50 in assay [1] was determined as 31 µM. For the same compound, in assay [2], the Ratio IC50 worked out at 19. On to `COC(=O)c1cccc(OCc2ccccc2)c1`, for which the IC50 in assay [1] is greater than 500 µM. Consider `O=C(O)c1cccc(CNc2ccccc2)c1`, for which, in assay [1], the IC50 is 7 µM. Also, the inhibition result in assay [3] and in assay [4] was “Active” throughout. Besides, the figures for the Ratio IC50 in assay [2] and in assay [5] were 71 and 13, respectively.

For the compound `COC(=O)c1cccc(CSc2ccccc2)c1`, in assay [1], the IC50 was 76 µM. Turning to `COC(=O)c1cccc(-n2cc(COc3ccccc3)nn2)c1`, the half-inhibitory concentration (IC50) in assay [1] worked out at 81 µM. On to `COC(=O)c1cccc(COc2ccc(OC)cc2)c1`, for which the IC50 in assay [1] stood at 242 µM. On the same count and under the same terms, the figure for `O=C(O)c1cccc(-n2cc(COc3ccccc3)nn2)c1` is greater than 500 µM; for `COC(=O)c1cccc(COc2ccccc2)c1` it is greater than 500 µM; for `O=C(O)c1cccc(CSc2ccccc2)c1` it is 128 µM. As for `O=C(O)c1cccc(OCc2ccccc2)c1`, the concentration for half-maximal inhibition (IC50) in assay [1] turned out to be 230 µM. For the compound `COC(=O)c1ccc(COc2ccccc2)cc1`, the IC50 in assay [1] is 152 µM. In the case of `c1ccc(OCc2cccc(-c3nnn[nH]3)c2)cc1`, the IC50 in assay [1] is 454 µM. `O=C(O)c1cccc(COc2ccc(O)cc2)c1`: the IC50 in assay [1] amounted to 36 µM. Also, the Ratio IC50 in assay [2] lay in the range of 13 to 21. With `COC(=O)c1ccc(COc2ccc(OC)cc2)cc1`, in assay [1], the IC50 amounted to 26 µM. Besides, in assay [2], the Ratio IC50 came out at 16.

For the compound `COc1ccc(OCc2cccc(C(=O)O)c2)cc1`, the IC50 in assay [1] was 119 µM. As for `O=C(O)c1cccc(COc2ccc([N+](=O)[O-])cc2)c1`, the 50% inhibitory concentration (IC50) in assay [1] is 23 µM. In assay [2], the Ratio IC50 was in the range of 13 to 21.
